Laboratory results reported in PubChem BioAssay AID342 (DTP/NCI, 2004).
“And” between values parts separate entries of the source, which are not always exact repeats. Identical values can stand only once.

Test system: Swiss mice, Sarcoma 180 sc, mean tumor weight T/C
Test: NCI In Vivo Anticancer Drug Screen. Data for tumor model Sarcoma 180 (subcutaneous) in Swiss mice
Details: endpoint: mean tumor weight, higher = larger tumour
Method in brief: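 Readout is the ratio of treated-group measurement to vehicle-control measurement (T/C), based on survival or tumor size in mice carrying transplanted tumors.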

[1] = dose: 0.2 mg/kg/injection, schedule: Q01DX007 (ip), vehicle: water

COC1=C(N)C(=O)c2nc(-c3nc(C(=O)O)c(C)c(-c4ccc(OC)c(OC)c4O)c3N)ccc2C1=O
T/C (dose: 0.02 mg/kg/injection, schedule: Q01DX007 (ip), vehicle: water): 66 % of control | T/C (dose: 0.05 mg/kg/injection, schedule: Q01DX007 (ip), vehicle: water): 70 % of control | T/C (dose: 0.05 mg/kg/injection, schedule: Q#A X014 (ip), vehicle: alkali diluted with CMC): 61 % of control | T/C (dose: 0.09 mg/kg/injection, schedule: Q01DX007 (ip), vehicle: other): 37 % of control | T/C (dose: 0.1 mg/kg/injection, schedule: Q01DX007 (ip), vehicle: water): 53 % of control and 54 % of control | T/C (dose: 0.1 mg/kg/injection, schedule: Q#A X014 (ip), vehicle: alkali diluted with CMC): 52 % of control | T/C (dose: 0.13 mg/kg/injection, schedule: Q01DX007 (ip), vehicle: other): 83 % of control | T/C (dose: 0.2 mg/kg/injection, schedule: Q01DX007 (ip), vehicle: other): 73 % of control | T/C [1]: 48 % of control | T/C (dose: 0.2 mg/kg/injection, schedule: Q#A X014 (ip), vehicle: alkali diluted with CMC): 65 % of control | T/C (dose: 0.25 mg/kg/injection, schedule: Q01DX007 (ip), vehicle: water): 27 % of control | T/C (dose: 0.3 mg/kg/injection, schedule: Q01DX007 (ip), vehicle: other): 54 % of control

CN(Cc1cnc2nc(NCNC(=O)C3=C(O)[C@@]4(O)C(=O)C5=C(O)c6c(O)cccc6[C@@](C)(O)[C@H]5C[C@H]4[C@H](N(C)C)C3=O)nc(N)c2n1)c1ccc(C(=O)NC(CCC(=O)O)C(=O)O)cc1 (some centres undefined)
T/C (dose: 1.5 mg/kg/injection, schedule: Q01DX007 (ip), vehicle: saline): 76 % of control | T/C (dose: 3.0 mg/kg/injection, schedule: Q01DX007 (ip), vehicle: saline): 52 % of control | T/C (dose: 6.0 mg/kg/injection, schedule: Q01DX007 (ip), vehicle: saline): 16 % of control

COc1cccc2c1-c1ccccc1C2
T/C (dose: 62.5 mg/kg/injection, schedule: Q01DX007 (ip), vehicle: carboxymethylcellulose (CMC)): 151 % of control | T/C (dose: 250.0 mg/kg/injection, schedule: Q01DX007 (ip), vehicle: carboxymethylcellulose (CMC)): 114 % of control

O=C(Nc1ccc(C2=NCCCN2)cc1)c1ccc(C(=O)Nc2ccc(C3=NCCCN3)cc2)cc1
T/C [1]: 83 % of control | T/C (dose: 0.4 mg/kg/injection, schedule: Q01DX007 (ip), vehicle: water): 106 % of control | T/C (dose: 0.8 mg/kg/injection, schedule: Q01DX007 (ip), vehicle: water): 88 % of control | T/C (dose: 1.0 mg/kg/injection, schedule: Q01DX007 (ip), vehicle: carboxymethylcellulose (CMC)): 80 % of control | T/C (dose: 1.6 mg/kg/injection, schedule: Q01DX007 (ip), vehicle: water): 90 % of control | T/C (dose: 2.0 mg/kg/injection, schedule: Q01DX007 (ip), vehicle: carboxymethylcellulose (CMC)): 93 % of control | T/C (dose: 8.0 mg/kg/injection, schedule: Q01DX007 (ip), vehicle: carboxymethylcellulose (CMC)): 104 % of control | T/C (dose: 16.0 mg/kg/injection, schedule: Q01DX007 (ip), vehicle: carboxymethylcellulose (CMC)): 25 % of control | T/C (dose: 32.0 mg/kg/injection, schedule: Q01DX007 (ip), vehicle: carboxymethylcellulose (CMC)): 14 % of control

CC1(C)O[C@@H]2C[C@H]3[C@@H]4CCC5=CC(=O)C=C[C@]5(C)[C@@]4(F)[C@@H](O)C[C@]3(C)[C@]2(C(=O)CO)O1
T/C (dose: 1.1 mg/kg/injection, schedule: Q#A X014 (sc), vehicle: steriod suspending solution): 41 % of control and 57 % of control | T/C (dose: 1.65 mg/kg/injection, schedule: Q#A X014 (sc), vehicle: steriod suspending solution): 33 % of control and 34 % of control | T/C (dose: 2.5 mg/kg/injection, schedule: Q#A X014 (sc), vehicle: steriod suspending solution): 20 % of control and 26 % of control | T/C (dose: 3.75 mg/kg/injection, schedule: Q#A X014 (sc), vehicle: steriod suspending solution): 22 % of control

C[C@@H]1C[C@@]2(C)[C@@H](CC[C@@H]3[C@@H]2CC[C@]2(C)[C@@H](O)CC[C@@H]32)CC1=O
T/C (dose: 25.0 mg/kg/injection, schedule: Q#A X014 (oral), vehicle: steriod suspending solution): 120 % of control | T/C (dose: 75.0 mg/kg/injection, schedule: Q#A X014 (oral), vehicle: steriod suspending solution): 75 % of control | T/C (dose: 187.5 mg/kg/injection, schedule: Q#A X014 (oral), vehicle: steriod suspending solution): 63 % of control

CNCCc1ccccc1
T/C (dose: 110.0 mg/kg/injection, schedule: Q01DX007 (ip), vehicle: saline): 77 % of control

NC(=O)CCC(NC(=O)c1ccc([N+](=O)[O-])cc1)C(=O)O (centres undefined)
T/C (dose: 62.5 mg/kg/injection, schedule: Q01DX007 (ip), vehicle: other): 69 % of control | T/C (dose: 125.0 mg/kg/injection, schedule: Q01DX007 (ip), vehicle: other): 50 % of control | T/C (dose: 250.0 mg/kg/injection, schedule: Q01DX007 (ip), vehicle: other): 63 % of control

O=C(Nc1ccc2c(c1)Cc1cccc(NC(=O)C(Cl)Cl)c1-2)C(Cl)Cl
T/C (dose: 222.0 mg/kg/injection, schedule: Q01DX007 (ip), vehicle: carboxymethylcellulose (CMC)): 76 % of control | T/C (dose: 222.0 mg/kg/injection, schedule: Q01DX007 (ip), vehicle: methylcellulose (MC)): 46 % of control | T/C (dose: 222.0 mg/kg/injection, schedule: Q01DX007 (ip), vehicle: other): 52 % of control | T/C (dose: 333.0 mg/kg/injection, schedule: Q01DX007 (ip), vehicle: carboxymethylcellulose (CMC)): 70 % of control and 90 % of control | T/C (dose: 333.0 mg/kg/injection, schedule: Q01DX007 (ip), vehicle: methylcellulose (MC)): 69 % of control | T/C (dose: 333.0 mg/kg/injection, schedule: Q01DX007 (ip), vehicle: other): 81 % of control | T/C (dose: 500.0 mg/kg/injection, schedule: Q01DX007 (ip), vehicle: carboxymethylcellulose (CMC)): 48 % of control and 58 % of control | T/C (dose: 500.0 mg/kg/injection, schedule: Q01DX007 (ip), vehicle: methylcellulose (MC)): 87 % of control | T/C (dose: 500.0 mg/kg/injection, schedule: Q01DX007 (ip), vehicle: other): 122 % of control | T/C (dose: 750.0 mg/kg/injection, schedule: Q01DX007 (ip), vehicle: carboxymethylcellulose (CMC)): 48 % of control | T/C (dose: 750.0 mg/kg/injection, schedule: Q01DX007 (ip), vehicle: methylcellulose (MC)): 46 % of control | T/C (dose: 750.0 mg/kg/injection, schedule: Q01DX007 (ip), vehicle: other): 89 % of control

COC(=O)c1[nH]c(=O)[nH]c(=O)c1F
T/C (dose: 4.5 mg/kg/injection, schedule: Q01DX007 (ip), vehicle: carboxymethylcellulose (CMC)): 78 % of control | T/C (dose: 9.0 mg/kg/injection, schedule: Q01DX007 (ip), vehicle: carboxymethylcellulose (CMC)): 44 % of control and 55 % of control | T/C (dose: 14.0 mg/kg/injection, schedule: Q01DX007 (ip), vehicle: carboxymethylcellulose (CMC)): 39 % of control and 51 % of control and 54 % of control | T/C (dose: 21.0 mg/kg/injection, schedule: Q01DX007 (ip), vehicle: carboxymethylcellulose (CMC)): 26 % of control | T/C (dose: 31.0 mg/kg/injection, schedule: Q01DX007 (ip), vehicle: carboxymethylcellulose (CMC)): 10 % of control and 14 % of control | T/C (dose: 47.0 mg/kg/injection, schedule: Q01DX007 (ip), vehicle: carboxymethylcellulose (CMC)): 5 % of control and 7 % of control and 12 % of control

CC(C)CN(C)/N=N/c1nc[nH]c1C(N)=O
T/C (dose: 25.0 mg/kg/injection, schedule: Q01DX007 (ip), vehicle: carboxymethylcellulose (CMC)): 92 % of control | T/C (dose: 50.0 mg/kg/injection, schedule: Q01DX007 (ip), vehicle: carboxymethylcellulose (CMC)): 41 % of control

CCCn1cnc2c(=S)nc[nH]c21
T/C (dose: 43.0 mg/kg/injection, schedule: Q01DX007 (ip), vehicle: carboxymethylcellulose (CMC)): 75 % of control | T/C (dose: 61.0 mg/kg/injection, schedule: Q01DX007 (ip), vehicle: carboxymethylcellulose (CMC)): 44 % of control | T/C (dose: 93.0 mg/kg/injection, schedule: Q01DX007 (ip), vehicle: carboxymethylcellulose (CMC)): 35 % of control | T/C (dose: 140.0 mg/kg/injection, schedule: Q01DX007 (ip), vehicle: carboxymethylcellulose (CMC)): 28 % of control

COC(=O)C1C2CC3c4[nH]c5cc(OC)ccc5c4CCN3CC2CC(OC(=O)c2cc(OC)c(OC)c(OC)c2)C1OC (centres undefined)
T/C (dose: 0.5 mg/kg/injection, schedule: Q01DX007 (ip), vehicle: saline): 155 % of control | T/C (dose: 1.0 mg/kg/injection, schedule: Q01DX007 (ip), vehicle: saline): 85 % of control | T/C (dose: 2.0 mg/kg/injection, schedule: Q01DX007 (ip), vehicle: saline): 62 % of control | T/C (dose: 4.0 mg/kg/injection, schedule: Q01DX007 (ip), vehicle: saline): 83 % of control and 85 % of control | T/C (dose: 8.0 mg/kg/injection, schedule: Q01DX007 (ip), vehicle: saline): 115 % of control | T/C (dose: 16.0 mg/kg/injection, schedule: Q01DX007 (ip), vehicle: saline): 92 % of control | T/C (dose: 32.0 mg/kg/injection, schedule: Q01DX007 (ip), vehicle: saline): 90 % of control

CO[C@H]1C(=O)C[C@H]2[C@@H]3CC=C4C[C@@H](O)CC[C@]4(C)[C@H]3CC[C@]12C
T/C (dose: 2.5 mg/kg/injection, schedule: Q01DX007 (sc), vehicle: steriod suspending solution): 92 % of control | T/C (dose: 5.0 mg/kg/injection, schedule: Q01DX007 (sc), vehicle: steriod suspending solution): 101 % of control | T/C (dose: 10.0 mg/kg/injection, schedule: Q01DX007 (sc), vehicle: steriod suspending solution): 89 % of control | T/C (dose: 20.0 mg/kg/injection, schedule: Q01DX007 (sc), vehicle: steriod suspending solution): 94 % of control | T/C (dose: 40.0 mg/kg/injection, schedule: Q01DX007 (sc), vehicle: steriod suspending solution): 93 % of control and 107 % of control | T/C (dose: 80.0 mg/kg/injection, schedule: Q01DX007 (sc), vehicle: steriod suspending solution): 116 % of control and 117 % of control
